Data taken from patent publication US8415289B2, “Bacterial-derived BLIS for treatment of acne” (The Trustees of the University of Pennsylvania, priority 2005, dated 2013).

Tested on: S. salivarius
Assay: Etest MIC susceptibility of clinical S. salivarius isolates to antibiotics
Assay type: cell-based, Streptococcus salivarius
Procedure: The dorsum of the tongue was swabbed and the specimen collected using a BBL CultureSwab Collection and Transport System (Difco, Detroit, Mich.). The sterile cotton stick was drawn across the dorsum of the tongue 10-12 times while maintaining pressure. Swabs were stored at 4° C. for no more than 24 h. Cultures were diluted 10 and 100-fold using Tryptic Soy Broth (Difco, Detroit, Mich.), and diluted cultures directly inoculated on mitis-salivarius agar (Difco, Detroit, Mich.) using sterile technique. Plates were incubated upside down at 37° C. in 5% carbon dioxide for 24 h. Colonies were screened by morphology consistent with S. salivarius (large, soft, fluffy colonies due to levan production from the sucrose in the agar). This is the standard method used to screen for S. salivarius (24;24). All samples identified based on visual morphology were frozen and stored for subsequent testing (BLIS assays and resistance testing).
Colonies identified as S. salivarius by morphology were tested for susceptibility to clindamycin, erythromycin and tetracycline using the Etest MIC method. Etest strips were purchased from AB Biodisk (Piscataway, N.J., USA), and were used in accordance with the manufacturer's instructions. The concentration gradient of each antimicrobial agent on the Etest strips was 0.016-256 ug/ml. MICs were read directly from the test strip where the zone of inhibition intersected the MIC scale on the strip. Zones of inhibition were compared with standard values (NCCLS M100-S10) to assign a designation of “susceptible,” “intermediate”, or “resistant” to each antimicrobial agent.
Secondarily, determination was made as to whether the S. salivarius recovered was resistant to clindamycin, erythromycin, and tetracycline. Chi-squared analyses were performed to detect a difference among Groups Ia, Ib, and II. We further stratified the acne patients into those receiving oral and/or topical antibiotics, and no antibiotics. These findings were represented as simple percentages, allowing for qualitative comparisons among these groups. […] This accounts for the discrepancy between the numerators in Table 2 and the denominators in Table 3.

[1] = Group II: no acne, no antibiotics, 15 isolates, NCCLS M100-S10
[2] = Group Ia: acne, using antibiotics, 13 isolates, NCCLS M100-S10
[3] = Group Ib: acne, not using antibiotics, 5 isolates, NCCLS M100-S10

Compound | Proportion of antibiotic-resistant Streptococcus salivarius in the oropharynx [1] | Proportion of antibiotic-resistant Streptococcus salivarius in the oropharynx (Group II: no acne, no antibiotics, 15 isolates, NCCLS M100-S10, listed as clindamycin) | Proportion of antibiotic-resistant Streptococcus salivarius in the oropharynx [2] | Proportion of antibiotic-resistant Streptococcus salivarius in the oropharynx (Group Ia: acne, using antibiotics, 13 isolates, NCCLS M100-S10, listed as clindamycin) | Proportion of antibiotic-resistant Streptococcus salivarius in the oropharynx [3] | Proportion of antibiotic-resistant Streptococcus salivarius in the oropharynx (Group Ib: acne, not using antibiotics, 5 isolates, NCCLS M100-S10, listed as clindamycin) | Proportion of antibiotic-resistant Streptococcus salivarius in the oropharynx (Group II: no acne, no antibiotics, 15 isolates, NCCLS M100-S10, listed as erythromycin) | Proportion of antibiotic-resistant Streptococcus salivarius in the oropharynx (Group Ia: acne, using antibiotics, 13 isolates, NCCLS M100-S10, listed as erythromycin) | Proportion of antibiotic-resistant Streptococcus salivarius in the oropharynx (Group Ib: acne, not using antibiotics, 5 isolates, NCCLS M100-S10, listed as erythromycin) | Proportion of antibiotic-resistant Streptococcus salivarius in the oropharynx (Group II: no acne, no antibiotics, 15 isolates, NCCLS M100-S10, listed as tetracycline) | Proportion of antibiotic-resistant Streptococcus salivarius in the oropharynx (Group Ia: acne, using antibiotics, 13 isolates, NCCLS M100-S10, listed as tetracycline) | Proportion of antibiotic-resistant Streptococcus salivarius in the oropharynx (Group Ib: acne, not using antibiotics, 5 isolates, NCCLS M100-S10, listed as tetracycline)
CCC[C@@H]1C[C@@H](C(=O)N[C@@H]([C@H]2O[C@H](SC)[C@H](O)[C@@H](O)[C@H]2O)[C@H](C)Cl)N(C)C1 [Clindamycin, clindamycin] | 1/15 (7%) | 7% | 9/13 (69%) | 69% | 1/5 (20%) | 20% |  |  |  |  |  | 
CC[C@H]1OC(=O)[C@H](C)[C@@H](O[C@H]2C[C@@](C)(OC)[C@@H](O)[C@H](C)O2)[C@H](C)[C@@H](O[C@@H]2O[C@H](C)C[C@H](N(C)C)[C@H]2O)[C@](C)(O)C[C@@H](C)C(=O)[C@H](C)[C@@H](O)[C@]1(C)O [Erythromycin, erythromycin] | 3/15 (20%) |  | 9/13 (69%) |  | 2/5 (40%) |  | 20% | 69% | 40% |  |  | 
CN(C)[C@@H]1C(O)=C(C(N)=O)C(=O)[C@@]2(O)C(O)=C3C(=O)c4c(O)cccc4[C@@](C)(O)[C@H]3C[C@@H]12 [Tetracycline, tetracycline] | 4/15 (27%) |  | 10/13 (77%) |  | 2/5 (40%) |  |  |  |  | 27% | 77% | 40%
